Measured values as given in US20030007949A1, “Adhesive treatment for tinea corporis” (CLOSURE MEDICAL CORPORATION, priority 2001, published 2003).

Assay: Observation of haloprogin / 2-octyl cyanoacrylate monomer composition after preparation
Type: physicochemical
Conditions: 30 mg haloprogin in 2 mL 2-octyl cyanoacrylate monomer, observed at about one minute and at least twenty-four hours after preparation
Method: A 2-octyl cyanoacrylate monomer composition is prepared by adding 30 mg of haloprogin, an anti-fungal agent, to 2 mL of 2-octyl cyanoacrylate monomer. The mixture is sealed in a glass vial and stirred. The characteristics of the composition are observed at about one minute after preparation and later at least twenty-four hours after preparation.

In the case of `Clc1cc(Cl)c(OCC#CI)cc1Cl` [haloprogin], the “premature polymerization caused in the monomer” value is reported as “does not cause premature polymerization” and the “solubility of haloprogin in the monomer” value (sealed glass vial, stirred) is reported as “soluble”.
